Reference: US20120232062A1, “AZAINDAZOLES TO TREAT FLAVIVIRIDAE VIRUS INFECTION” (EIGER BIOPHARMACEUTICALS, INC., priority 2009, published 2012)

Test system: HCV genotype 1b
Test: HCV 1b replicon luciferase assay
Type: cell-based
Settings: Hepatitis C virus, Huh-7, 48 h, Table 1; Huh7 HCV 1b replicon, luciferase reporter, 48 hours; read-out: 1b EC50
Source text: A suitable 1b HCV RNA replicon assay uses the Huh7 cell line which contains an HCV 1b RNA replicon with a stable luciferase (LUC) reporter. This construct contains modifications that make the cell line more robust and provides stable LUC expression for antiviral screening. The LUC reporter is used as an indirect measure of HCV replication. The activity of the LUC reporter is directly proportional to HCV RNA levels and positive control antiviral compounds behave comparably using LUC endpoints. […]
Fresh growth medium is prepared just before use. The container used in the procedure is a 10 cm diameter culture dish. HCV replicon reporter cell lines are used. Prepare complete medium: add FBS and appropriate additives as described in “Culture Media”, below. Pre-warm the medium in a 37° C. thermostat water bath. Remove the dish from a 37° C. CO2 incubator. Check the cell name and complete medium and passage number marked on the dish. Aspirate the medium carefully and add 1 ml PBS to rinse the cells. Remove and discard the solution and add 1 ml of 0.25% Trypsin/0.02% EDTA. Rinse the cells with the added Trypsin/EDTA to ensure all the cells have been rinsed. Remove the Trypsin/EDTA with a vacuum pump and incubate at 37° C. for 3-5 minutes. Examine the cell morphology under an inverted microscope to confirm that a single cell suspension is clearly visible. Add 3 ml of complete medium to the dish and suspend the cell by gentle pipetting. Count the cell numbers with a hematometer. Adjust cell density to 100 k/ml by adding appropriate volume of the complete medium. Add 100 μl of cell suspension to each well of a 96-well white plate; the cell density is thus 10 k per well. Mark the plate with cell name, passage number, seeding density, date and the name of the operator. Place the 96-well assay plate in 37° C. 5% CO2 incubator for 24 hours.
Compounds are prepared or provided at 25 mM in 100% DMSO. This is the compound stock solution. The dilution procedure should be performed in a cell culture hood. Dispense the stock solution into the second column of a 96-well plate. Prepare 9-step (10 concentrations total), 5-fold serial dilutions by transferring 10 μA of the compound into the next well containing 40 μA of DMSO. Repeat for all compounds. Aspirate 2 μl of the above compound solution from each well and add into 198 μl complete media using a 12-channel pipetter to obtain the 10-fold concentration compound solution with 1% DMSO, mix well.
Remove the 96-well assay plate from the 37° C./5% CO2 incubator, examine the cell morphology under an inverted microscope. In a cell culture hood, add 10 μl of the 10× concentration compounds solution into each well on the 96-well assay plate. All compound's dose responses are done in duplicate. The starting final concentration of the compounds is 25 μM, and DMSO final concentration 0.1%. Mark the plate with compound code(s) and concentrations. Place the 96-well assay plate into CO2 incubator for 48 hours. Add 30 μl of Stead-Glo Luciferase System (Promega) reagent to each well and mix by gentle shaking on a plate shaker for 5 minutes to allow throughout cell lysis. Measure the luminescence with Envision (Perkin Elmer) with an integration time of 2 seconds. Record and analyze the data.
The cell culture media is DMEM complete: DMEM (Life Technologies #41965-039) supplemented with 10% FCS, 2 mM Glutamin (Life Technologies #25030-024), Penicillin (100 IU/ml)/Streptomycin (100 μg/ml) (Life Technologies #15140-114) and 1× nonessential amino acids (Life Technologies #11140-035). G418 (“Geneticin”, Life Technologies): concentrations are given as weight per volume of the original substance. Specific activity of a typical batch is ca. 700 μg/mg as stated by the manufacturer. […] Therefore each new batch of G418 should be tested individually e.g. in an electroporation experiment using different selection conditions (0.2-1 mg/ml).

Row | SMILES | EC50 [nM]
1 | Cn1cc(-c2nn(C)c3nc(N4CCCCCC4)ccc23)nc1CC1CCNCC1 [compound 1126] | 7700
2 | Cn1nc(-c2cnc(C(=O)NC3CCNCC3)s2)c2ccc(N3CCCCCC3)nc21 [compound 1127] | 2900
3 | Cn1nc(-c2cnc(C(=O)NC3CCCNC3)s2)c2ccc(N3CCCCCC3)nc21 (stereo not drawn) [compound 1128] | 490
4 | Cn1nc(-c2cnc(C(=O)NCC3CCCNC3)s2)c2ccc(N3CCCCCC3)nc21 (stereo not drawn) [compound 1130] | 990
5 | CC1CC(NC(=O)c2nn(C)c3nc(N4CCCCCCC4)ccc23)CCN1CC1CCCCC1 (stereo not drawn) [compound 1151] | 1400
6 | CC1CC(NC(=O)c2nn(C)c3nc(N4CCCCCCC4)ccc23)CCN1Cc1ccc(OC(F)F)cc1 (stereo not drawn) [compound 1152] | 6100
7 | CC1CC(NC(=O)c2nn(C)c3nc(N4CCCCCCC4)ccc23)CCN1CCCC1CCCCC1 (stereo not drawn) [compound 1153] | 1500
8 | Cn1nc(CCCN2CCCCC2)c2ccc(N3CCCCCCC3)nc21 [compound 1172] | 1500
9 | CCN(c1ccc2c(C(=O)NC3CCN(CC4CCCCC4)CC3)nn(C)c2n1)C1CCCCCC1 [compound 1183] | 746
10 | Cn1nc(C(=O)NC2CCN(CC3CCCCC3)CC2)c2ccc(N(Cc3ccccc3)C3CCCCCC3)nc21 [compound 1184] | 168
11 | Clc1ccc(Cn2nc(COCCN3CCCCC3)c3ccc(N4CCCCCCC4)nc32)cc1 [compound 1204] | 5400
12 | Clc1ccc(Cn2nc(COCCCN3CCCCC3)c3ccc(N4CCCCCCC4)nc32)cc1 [compound 1205] | 4000
13 | Cn1nc(C(=O)NC2CCN(CC3CC3)CC2)c2ccc(N3CCCCCCC3)nc21 [compound 1222] | 3200
14 | Cn1nc(C(=O)NC2CCN(CC(F)F)CC2)c2ccc(N3CCCCCCC3)nc21 [compound 1223] | 2800
15 | Cc1ccc(CN2CCC(NC(=O)c3nn(C)c4nc(N5CCCCCCC5)ccc34)CC2)cc1 [compound 1224] | 2700
16 | CC(C)CCN1CCC(NC(=O)c2nn(C)c3nc(N4CCCCCCC4)ccc23)CC1C (stereo not drawn) [compound 1233] | 5300
17 | CCN1CCC(NC(=O)c2nn(C)c3nc(N4CCCCCCC4)ccc23)CC1C (stereo not drawn) [compound 1234] | 1900
18 | CCCN1CCC(NC(=O)c2nn(C)c3nc(N4CCCCCCC4)ccc23)CC1 [compound 1235] | 3400
19 | CC(C)CN1CCC(NC(=O)c2nn(C)c3nc(N4CCCCCCC4)ccc23)CC1 [compound 1236] | 6300
20 | Cn1nc(-c2cnc(C3CCCNC3)s2)c2ccc(N3CCCCCCC3)nc21 (stereo not drawn) [compound 1248] | 4100
21 | Cn1nc(-c2cnc(C(=O)NCc3ccccc3)s2)c2ccc(N3CCCCCCC3)nc21 [compound 1250] | 1400
22 | Cn1nc(-c2cnc(C(=O)NCC3CCCCC3)s2)c2ccc(N3CCCCCCC3)nc21 [compound 1251] | 1000
23 | Cn1nc(-c2cnc(C(=O)NC3CCCCC3)s2)c2ccc(N3CCCCCCC3)nc21 [compound 1254] | 1400
24 | Cn1nc(-c2cnc(C3CCCN(CC4CCCCC4)C3)s2)c2ccc(N3CCCCCCC3)nc21 (stereo not drawn) [compound 1255] | 3000
25 | Cn1nc(-c2cnc(C3CCCN(Cc4ccc(OC(F)F)cc4)C3)s2)c2ccc(N3CCCCCCC3)nc21 (stereo not drawn) [compound 1257] | 2400
26 | Cn1nc(-c2cnc(C(=O)NCC3CCCN(CC(F)F)C3)s2)c2ccc(N3CCCCCCC3)nc21 (stereo not drawn) [compound 1261] | 1800
27 | Cn1nc(-c2cnc([C@@H]3CCCN3CC3CCCCC3)s2)c2ccc(N3CCCCCCC3)nc21 [compound 1264] | 2400
28 | Cn1nc(-c2cnc(C3CCN(CC4CCCCC4)C3)s2)c2ccc(N3CCCCCCC3)nc21 (stereo not drawn) [compound 1268] | 580
29 | Cn1nc(-c2cnc(C3CCN(CC(F)F)C3)s2)c2ccc(N3CCCCCCC3)nc21 (stereo not drawn) [compound 1269] | 4600
30 | Cn1nc(-c2nnc(C3CCCNC3)o2)c2ccc(N3CCCCCCC3)nc21 (stereo not drawn) [compound 1271] | 3200
